Experiments:
KOP receptors [1] = biological target: T1, KOP receptors (Homo sapiens, UniProt P41145); assay: biochemical; assay type: biochemical
KOP receptors [2] = biological target: T1, KOP receptors; settings: cited from earlier work
[3] = tested on: cocaine-induced drug-seeking; settings: rats; dose of 0.3 mg/kg or greater; cited from earlier work
humans = settings: vaporized and inhaled; cited from earlier work
[4] = tested on: serotonin 5HT2A receptors; settings: cited from earlier work
KOP receptor [5] = settings: cited from earlier work
KOP receptor [6] = settings: cited from earlier work; remark: listed apart in the source
KOP receptor [7] = assay: Previously published potency/efficacy at KOP receptors; assay type: biochemical; settings: relative to 1
KOP receptors [8] = biological target: T1, KOP receptors; assay type: binding

T1 sequence (P41145 whole entry): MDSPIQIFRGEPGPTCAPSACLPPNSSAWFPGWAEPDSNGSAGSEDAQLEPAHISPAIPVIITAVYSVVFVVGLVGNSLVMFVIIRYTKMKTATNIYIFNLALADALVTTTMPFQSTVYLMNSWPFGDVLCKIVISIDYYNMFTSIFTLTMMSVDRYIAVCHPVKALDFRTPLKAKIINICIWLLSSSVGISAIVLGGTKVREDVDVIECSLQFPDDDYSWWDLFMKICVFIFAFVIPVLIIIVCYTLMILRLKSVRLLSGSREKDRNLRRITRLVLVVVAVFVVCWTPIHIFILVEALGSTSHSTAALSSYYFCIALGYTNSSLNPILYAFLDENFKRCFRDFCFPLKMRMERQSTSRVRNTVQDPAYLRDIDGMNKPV

## COC(=O)[C@@H]1C[C@H](O[C@@H]2CCCCO2)C(=O)[C@H]2[C@@]1(C)CC[C@H]1C(=O)O[C@H](c3ccoc3)C[C@]21C [Compound 5]
KOP receptors [1]
  EC50: 60 ± 6 nM

## CCOCO[C@H]1C[C@@H](C(=O)OC)[C@]2(C)CC[C@H]3C(=O)O[C@H](c4ccoc4)C[C@]3(C)[C@H]2C1=O [Compound 4]
KOP receptors [1]
  EC50: 0.65 ± 0.17 nM

## COC(=O)[C@@H]1C[C@H](OC(C)=O)C(=O)[C@H]2[C@@]1(C)CC[C@H]1C(=O)O[C@H](c3ccoc3)C[C@]21C [Compound 1, salvinorin A]
KOP receptors [2]
  ED50 ± SD (κ): 40 ± 10 nM
[3]
  effect on cocaine-primed reinstatement of drug seeking: attenuate cocaine-primed reinstatement of drug seeking
humans
  active dose in humans (hallucinogen): 4.5 to 21 µg/kg
[4]
  activity at serotonin 5HT2A receptors: does not have activity

## CCOC(=O)O[C@H]1C[C@@H](C(=O)OC)[C@]2(C)CC[C@H]3C(=O)O[C@H](c4ccoc4)C[C@]3(C)[C@H]2C1=O [Compound 11]
KOP receptor [5]; vs. [3H]bremazocine
  affinity at the KOP receptor vs. [3H]bremazocine: no appreciable affinity
KOP receptor [5]; vs. [3H]diprenorphine
  affinity at the KOP receptor vs. [3H]diprenorphine: no appreciable affinity

## COC(=O)[C@@H]1C[C@H](O[C@H]2CCCO2)C(=O)[C@H]2[C@@]1(C)CC[C@H]1C(=O)O[C@H](c3ccoc3)C[C@]21C [Compound 7b]
KOP receptors [1]
  EC50: 690 ± 80 nM
  fold less potent than 1 as agonist: ~17 fold

## CCNC(=O)O[C@H]1C[C@@H](C(=O)OC)[C@]2(C)CC[C@H]3C(=O)O[C@H](c4ccoc4)C[C@]3(C)[C@H]2C1=O [Compound 12]
KOP receptor [6]; read-out: KOP receptor potency EC50
  EC50: > 1000 nM

## COC(=O)[C@@H]1C[C@H](OC(C)=O)C(=O)[C@H]2[C@@]1(C)CC[C@H]1C(=O)O[C@H](C(=O)N3CCCCC3)C[C@]21C [Compound 15, reference compound]
KOP receptor [7]
  fold less potent than 1 as agonist (previously published analog): approximately 125 fold
KOP receptor [6]
  potency at KOP receptors ED50: 5110 ± 1800 nM

## COCO[C@H]1C[C@@H](C(=O)OC)[C@]2(C)CC[C@H]3C(=O)O[C@H](C(=O)N4CCCCC4)C[C@]3(C)[C@H]2C1=O [Compound 14]
KOP receptors [8]
  KOP binding affinity worse compared to 3: roughly 31 fold
  KOP receptor binding affinity improved over that of 15: approximately 2 fold
KOP receptors [1]
  EC50: 1930 ± 239 nM
  fold less potent than 1 as agonist: 48 fold
  fold less potent than 3 as agonist: roughly 322 fold
  improvement in potency over 15: approximately 2.5 fold

## COC(=O)[C@@H]1C[C@H](O[C@@H]2CCCO2)C(=O)[C@H]2[C@@]1(C)CC[C@H]1C(=O)O[C@H](c3ccoc3)C[C@]21C [Compound 7a]
KOP receptors [1]
  EC50: 1220 ± 230 nM
  fold less potent than 1 as agonist: approximately 30 fold
